Source: ChEMBL document CHEMBL2202954, “The effect of PLC-γ2 inhibitors on the growth of human tumour cells” (2012)

How the values were obtained:
Type in all cases: functional
SF-539 = assay: Cytotoxicity against human SF539 cells assessed as cellular growth at 10 uM by SRB assay
MDA-MB-231 = assay: Cytotoxicity against human MDA-MB-231 cells assessed as cellular growth at 10 uM by SRB assay
OVCAR-8 = assay: Cytotoxicity against human OVCAR8 cells assessed as cellular growth at 10 uM by SRB assay
HCC 2998 = assay: Cytotoxicity against human HCC2998 cells assessed as cellular growth at 10 uM by SRB assay
U-251 = assay: Cytotoxicity against human U251 cells assessed as cellular growth at 10 uM by SRB assay
SNB-75 = assay: Cytotoxicity against human SNB75 cells assessed as cellular growth at 10 uM by SRB assay
COLO 205 = assay: Cytotoxicity against human COLO205 cells assessed as cellular growth at 10 uM by SRB assay
CCRF-CEM = assay: Cytotoxicity against human CCRF-CEM cells assessed as cellular growth at 10 uM by SRB assay
SK-MEL-2 = assay: Cytotoxicity against human SK-MEL-2 cells assessed as cellular growth at 10 uM by SRB assay
HT-29 = assay: Cytotoxicity against human HT-29 cells assessed as cellular growth at 10 uM by SRB assay
NCI-H226 = assay: Cytotoxicity against human NCI-H226 cells assessed as cellular growth at 10 uM by SRB assay
SNB-19 = assay: Cytotoxicity against human SNB19 cells assessed as cellular growth at 10 uM by SRB assay
BT-549 = assay: Cytotoxicity against human BT549 cells assessed as cellular growth at 10 uM by SRB assay
MCF7 = assay: Cytotoxicity against human MCF7 cells assessed as cellular growth at 10 uM by SRB assay
SW-620 = assay: Cytotoxicity against human SW620 cells assessed as cellular growth at 10 uM by SRB assay
PC-3 = assay: Cytotoxicity against human PC3 cells assessed as cellular growth at 10 uM by SRB assay
NCI-H460 = assay: Cytotoxicity against human NCI-H460 cells assessed as cellular growth at 10 uM by SRB assay
UACC-257 = assay: Cytotoxicity against human UACC257 cells assessed as cellular growth at 10 uM by SRB assay
MOLT-4 = assay: Cytotoxicity against human MOLT4 cells assessed as cellular growth at 10 uM by SRB assay
A498 = assay: Cytotoxicity against human A498 cells assessed as cellular growth at 10 uM by SRB assay

| SMILES | Activity (SF-539) | Activity (MDA-MB-231) | Activity (OVCAR-8) | Activity (HCC 2998) | Activity (U-251) | Activity (SNB-75) | Activity (COLO 205) | Activity (CCRF-CEM) | Activity (SK-MEL-2) | Activity (HT-29) | Activity (NCI-H226) | Activity (SNB-19) | Activity (BT-549) | Activity (MCF7) | Activity (SW-620) | Activity (PC-3) | Activity (NCI-H460) | Activity (UACC-257) | Activity (MOLT-4) | Activity (A498) |
| --- | --- | --- | --- | --- | --- | --- | --- | --- | --- | --- | --- | --- | --- | --- | --- | --- | --- | --- | --- | --- |
| Cc1ccc2c(c1)N/C(=C/C(=O)c1ccc(Cl)cc1)C(=O)O2 | 106.89% | 86.67% | 101.66% | 108.44% | 100.94% | 86.32% | 118.18% | 65.56% | 108.87% | 105.84% | 105.28% | 105.39% | 109.64% | 87.54% | 114.93% | 87.2% | 109.79% | 97.03% | 86.91% |  |
| O=C(NCc1cccnc1)c1sc2cc([N+](=O)[O-])ccc2c1Cl | 103.86% | 117.28% | 96.34% | 104.9% | 90.3% | 91.37% | 118.05% | 100.08% |  | 106.56% | 97.25% | 96.96% | 97.89% | 92.75% | 96.99% | 101.92% | 106.27% | 92.34% | 93.36% | 66.73% |
| COc1ccc(Cl)cc1C(=O)Nc1nc2ccc(Cl)cc2s1 | 86.39% | 70.89% | 88.9% | 102.29% | 87.26% | 74.28% | 82.83% | 86.4% | 103.7% | 109.45% | 89.17% | 102.79% | 97.73% | 41.75% | 100.98% | 84.45% | 93.65% | 101.95% | 95.65% |  |
| O=C(NCCc1ccccc1)c1cc2cccc([N+](=O)[O-])c2[nH]1 | 103.09% | 77.17% | 94.36% | 105.66% | 97.58% |  | 90.85% | 86.81% | 101.4% | 99.19% | 82.38% | 97.53% | 99.6% |  | 108.15% | 77.13% | 101.23% | 108.88% | 91.34% | 117.41% |
| O=S(=O)(Oc1ccc(-c2cnc3ccccc3n2)cc1)c1ccccc1 | 94.38% | 105.17% | 100.22% | 99.83% | 92.1% | 108.13% |  | 85.64% | 109.62% | 78.71% | 94.97% | 102.07% | 96.82% | 94.53% | 99.76% | 89.87% | 110.82% | 100.15% | 75.6% | 60.82% |
| Cc1ccc(S(=O)(=O)NC2=NC(=O)/C(=C\c3ccccc3)S2)cc1 | 96.06% | 100.89% | 102.48% | 106.96% | 98.58% | 88.62% |  | 92.01% | 117.54% | 109.22% | 108.84% | 108.61% | 113.45% | 97.41% | 109.53% | 111.74% | 119.27% | 104.4% | 86.66% | 11.33% |
| Cc1ccc(NC(=O)c2sc3nc4c(cc3c2N)C(=O)CCC4)c(Br)c1 | 108.91% | 118.27% | 98.57% | 102.39% | 94.7% | 107.29% | 113.39% | 103.07% |  | 107.12% | 99.85% | 100.23% | 113.85% | 96.02% | 97.41% | 102.4% | 101.57% | 96.22% | 103.27% | 83.73% |
| O=c1/c(=C/c2ccccc2Cl)sc2nc(-c3ccccc3)nn12 | 94.89% | 90.97% | 97.99% | 104.88% | 89.87% | 64.38% | 113.47% | 56.07% | 100.14% | 112.54% | 100.04% | 90.58% | 91.77% | 91.04% | 107.46% | 72.09% | 99.8% | 85.66% | 69.85% |  |
| N#Cc1ccc(-n2nnc3ccccc32)cc1C#N | 101.14% | 111.41% | 99.01% | 103.78% | 91.31% | 120.55% | 104.26% | 93.15% |  | 108.03% | 96.73% | 112.27% | 106.48% | 82.05% | 94.36% | 100.51% | 106.55% | 89.4% | 93.32% | 72.76% |
| Cc1ccc(C2=N/C(=C\c3ccccc3)C(=O)O2)cc1 | 103.23% | 105.18% | 102.69% | 99.84% | 107.92% | 90.22% | 122.06% | 94.95% | 108.55% | 107.8% | 102% | 103.53% | 103.91% | 103.73% | 102.61% | 104.18% | 109.3% | 101.52% | 91.17% |  |
| Nc1c(C(=O)Nc2ccc(Cl)c(Cl)c2)sc2nc(-c3cccs3)ccc12 | 79.24% | 84.38% | 98.27% | 98.35% | 83.86% | 86.26% | 115.1% | 82.99% | 58.47% | 87.42% | 96.17% | 95.32% | 76.11% | 87.77% | 105.33% | 85.43% | 103.53% | 91.24% | 83.49% |  |
